Assay results as given in ChEMBL document CHEMBL5393443, “Novel inhibitors of insulin-like growth factor 2 mrna binding proteins” (2022).

The compounds below were run on ES-2 (assay: Cytotoxicity against human ES2 cells after 72 hrs by InuCyte live cell imaging analysis). Settings: ES-2, 72 h.
Format: functional, cell-based

First: Cc1cc2c(O)nc(Cc3ccccc3)nc2s1
Second: Cc1ccc(C(=O)Nc2sc(Cc3ccccc3)cc2C(N)=O)o1
The EC50 of the first is 3.6-fold higher: 4840 nM for the first, 1340 nM for the second. The second is the more potent here.

`NC(=O)c1ccsc1NC(=O)c1cccs1` and `CCc1cc(C(=O)Nc2sccc2C(N)=O)cs1` are within 1.5-fold of each other in EC50: 3230 nM for the first, 2950 nM for the second.

Going from `NC(=O)c1ccccc1NC(=O)CN1CCN(Cc2ccc(Cl)cc2Cl)CC1` to `NC(=O)c1ccccc1NC(=O)CN1CCN(Cc2ccc(F)cc2Cl)CC1`, the EC50 rises from 993 nM to 3170 nM (3.2-fold). The first is the more potent here.

Compared with `NC(=O)c1ccccc1NC(=O)c1ccccc1`, `NC(=O)c1ccccc1NC(=O)c1ccc(Cl)c(Cl)c1` is 5.6-fold lower in EC50: 10500 nM for the first, 1880 nM for the second. The second is the more potent here.

Compared with `NC(=O)c1cc(Cc2ccccc2)sc1NC(=O)CN1CCN(Cc2ccccc2Cl)CC1`, `NC(=O)c1cc(Cc2ccccc2)sc1NC(=O)CN1CCN(Cc2ccc(Cl)c(Cl)c2)CC1` is 1.7-fold lower in EC50: 7110 nM for the first, 4090 nM for the second. The second is the more potent here.

`COc1ccc(C(=O)Nc2sc(Cc3ccccc3)cc2C(N)=O)cc1` and `NC(=O)c1cc(Cc2ccccc2)sc1NC(=O)c1ccccc1` are within 1.5-fold of each other in EC50: 1940 nM for the first, 2270 nM for the second.

Compared with `COc1ccc(C(=O)Nc2sc(C(C)C)cc2C(N)=O)cc1COc1ccc(Br)cc1`, `COc1ccc(C(=O)Nc2sc(C(C)C)cc2C(N)=O)cc1COc1ccccc1Cl` is 3.7-fold lower in EC50: 8340 nM for the first, 2230 nM for the second. The second is the more potent here.

Compared with `CC(Sc1nnc(NC(=O)c2ccccc2)s1)c1nc2ccccc2c(=O)[nH]1` (configuration not stated), `O=c1[nH]c(-c2ccc(OCc3ccccc3F)cc2)nc2ccccc12` is 16-fold lower in EC50: 4050 nM for the first, 250 nM for the second.

`NC(=O)c1cc(Cc2ccccc2)sc1NC(=O)c1ccc2c(c1)OCO2` and `NC(=O)c1cc(Cc2ccccc2)sc1NC(=O)c1ccc(Cl)s1` are within 1.5-fold of each other in EC50: 1300 nM for the first, 1660 nM for the second.

Going from `COc1cc(/C=C/C(=O)Nc2ccccc2C(N)=O)ccc1OCc1ccccc1` to `COc1ccc(C(=O)Nc2ccccc2C(N)=O)cc1COc1ccccc1Cl`, the EC50 falls from 1880 nM to 1100 nM (1.7-fold). The second is the more potent here.

Going from `NC(=O)c1ccsc1NC(=O)CN1CCN(Cc2ccc(Cl)c(Cl)c2)CC1` to `NC(=O)c1ccccc1NC(=O)CN1CCN(Cc2ccc(Cl)c(Cl)c2)CC1`, the EC50 rises from 781 nM to 1220 nM (1.6-fold). The first is the more potent here.

Compared with `NC(=O)c1cc(Cc2ccccc2)sc1NC(=O)Cc1cccs1`, `NC(=O)c1cc(Cc2ccccc2)sc1NC(=O)c1cccs1` is 1.7-fold lower in EC50: 1160 nM for the first, 671 nM for the second.

`CC(C)c1cc(C(N)=O)c(NC(=O)Cc2ccc(Cl)c(Cl)c2)s1` and `CCc1cc(C(=O)Nc2sc(Cc3ccccc3)cc2C(N)=O)cs1` are within 1.5-fold of each other in EC50: 2450 nM for the first, 1900 nM for the second.

`NC(=O)c1ccccc1NC(=O)CN1CCN(Cc2c(Cl)cccc2Cl)CC1` and `NC(=O)c1ccccc1NC(=O)CN1CCN(Cc2ccccc2Cl)CC1` are within 1.5-fold of each other in EC50: 6460 nM for the first, 9580 nM for the second.

First: COc1cc(-c2nc3ccccc3c(=O)[nH]2)ccc1OCc1ccccc1[N+](=O)[O-]
Second: COc1ccc(OCc2cc(-c3nc4sc(Cc5ccccc5)cc4c(=O)[nH]3)ccc2OC)cc1
The EC50 of the first is 2.4-fold lower: 476 nM for the first, 1120 nM for the second.

Going from `NC(=O)c1ccccc1OCC(=O)c1ccc(Br)cc1` to `NC(=O)c1ccccc1OCc1ccc(Cl)s1`, the EC50 rises from 2950 nM to 5610 nM (1.9-fold). The first is the more potent here.

Going from `COc1ccc(C(=O)Nc2sc(Cc3ccccc3)cc2C(N)=O)cc1COc1c(Cl)cccc1Cl` to `COc1ccc(C(=O)Nc2sc(Cc3ccccc3)cc2C(N)=O)cc1COc1cccc(Cl)c1Cl`, the EC50 falls from 2600 nM to 401 nM (6.5-fold). The second is the more potent here.

`NC(=O)c1ccccc1NC(=O)c1cc(Cl)cc(Cl)c1` and `COc1ccc(C(=O)Nc2ccccc2C(N)=O)cc1Cl` are within 1.5-fold of each other in EC50: 5140 nM for the first, 5840 nM for the second.

Compared with `NC(=O)c1c(NC(=O)c2ccc(Cl)s2)sc2c1CCCC2`, `NC(=O)c1c(NC(=O)c2ccc(Cl)s2)sc2c1CCC2` is 4.3-fold higher in EC50: 1470 nM for the first, 6270 nM for the second. The first is the more potent here.

Compared with `NC(=O)c1ccccc1NC(=O)c1cccc(COc2cccc(Cl)c2)c1`, `COc1ccc(C(=O)Nc2sc(Cc3ccccc3)cc2C(N)=O)cc1COc1cccc(Cl)c1` is 1.9-fold lower in EC50: 675 nM for the first, 355 nM for the second. The second is the more potent here.

Compared with `COc1ccc(C(=O)Nc2sc(Cc3ccccc3)cc2C(N)=O)cc1COc1ccccc1Cl`, `COc1ccc(C(=O)Nc2sc(Cc3ccccc3)cc2C(N)=O)cc1OCc1ccccc1Cl` is 2.5-fold higher in EC50: 439 nM for the first, 1100 nM for the second. The first is the more potent here.

First: NC(=O)c1cc(Cc2ccccc2)sc1NC(=O)COc1ccccc1
Second: NC(=O)c1cc(Cc2ccccc2)sc1NC(=O)CCc1ccccc1
The EC50 of the first is 2.6-fold lower: 2420 nM for the first, 6210 nM for the second. The first is the more potent here.

Compared with `NC(=O)c1ccccc1NC(=O)C1CCN(C(=O)c2cccs2)CC1`, `NC(=O)c1ccccc1NC(=O)c1ccc(Cl)s1` is 2.3-fold lower in EC50: 5180 nM for the first, 2300 nM for the second. The second is the more potent here.

First: NC(=O)c1cc(Cc2ccccc2)sc1NC(=O)c1cccc(COc2ccc(Cl)cc2Cl)c1
Second: COc1ccc(C(=O)Nc2sc(Cc3ccccc3)cc2C(N)=O)cc1COc1ccc(Cl)cc1Cl
The EC50 of the first is 6.2-fold lower: 47 nM for the first, 293 nM for the second.

`NC(=O)c1cc(Cc2ccccc2)sc1NC(=O)c1ccc(COc2ccc(Br)cc2)cc1` and `COc1ccc(C(=O)Nc2sc(Cc3ccccc3)cc2C(N)=O)cc1COc1ccc(Cl)cc1` are within 1.5-fold of each other in EC50: 1190 nM for the first, 1020 nM for the second.

First: CCc1c(C(=O)Nc2sc(Cc3ccccc3)cc2C(N)=O)csc1C
Second: NC(=O)c1cc(Cc2ccccc2)sc1NC(=O)c1ccc(COc2ccc(Cl)cc2Cl)s1
The EC50 of the first is 9-fold higher: 5060 nM for the first, 560 nM for the second. The second is the more potent here.

`NC(=O)c1ccccc1NC(=O)CN1CCN(Cc2ccc(Cl)cc2)CC1` and `Cc1ccc(C(=O)Nc2ccccc2C(N)=O)s1` are within 1.5-fold of each other in EC50: 2990 nM for the first, 2060 nM for the second.

`COc1ccc(C(=O)Nc2sccc2C(N)=O)cc1COc1ccccc1Cl` and `NC(=O)c1cc(Cl)ccc1OCC(=O)c1ccc(Cl)s1` are within 1.5-fold of each other in EC50: 1660 nM for the first, 1330 nM for the second.

Compound `CNC(=O)c1ccccc1NC(=O)c1cc(C)c(C)s1` has an EC50 of 2830 nM.
